Literature values as cited in patent US10399948B2, “Negative allosteric modulators of metabotropic glutamate receptor 3” (Vanderbilt University, priority 2015, dated 2019).

Key:
schizophrenic patients = details: compared to placebo, P<0.001 at week 4; cited from earlier work
glioma stem cells (GSC) = details: in vitro; cited from earlier work
mice = details: cited from earlier work
[1] = tested on: Aβ-induced neurodegeneration; details: cited from earlier work
[2] = tested on: central mGlu2 and mGlu3 receptors; details: in vivo; cited from earlier work
C57Bl6/J mice = details: FST; cited from earlier work
mouse = details: normal animals; cited from earlier work
rat = details: normal animals; cited from earlier work
[3] = tested on: glioma stem cells (GSC) tumors; details: compared with controls; cited from earlier work
Helpless (H) mice = details: cited from earlier work

Row | Structure (SMILES) | positive and negative symptoms of schizophrenia (schizophrenic patients) | proliferation rates and proportion of cells in S phase (glioma stem cells (GSC)) | marble-burying behavior (mice) | amplification of Aβ-induced neurodegeneration by LY566332 [1] | hypolocomotor effect of mGlu2/3 agonist LY379268 [2] | immobility time (C57Bl6/J mice) | antidepressant-like effects (mouse) | antidepressant-like effects (rat) | growth rate and volume of tumors [3] | activity in the tail suspension test (Helpless (H) mice; Helpless (H) mice) | antidepressant effect in helpless mice (Helpless (H) mice; acute administration)
1 | N[C@@]1(C(=O)O)CS(=O)(=O)[C@H]2[C@H](C(=O)O)[C@H]21 [LY404039] | statistically significant improvements | – | – | – | – | – | – | – | – | – | –
2 | N[C@](CC1c2ccccc2Oc2ccccc21)(C(=O)O)[C@H]1C[C@@H]1C(=O)O [LY341495] | – | decreased in a time-dependent manner | significantly reduce | prevented | achieved the same result | dose-dependently reduced | Antidepressant-like effects | Antidepressant-like effects | reduced | active | potent antidepressant effect
